Data from US20250136607A1 (REGOR PHARMACEUTICALS, INC., priority 2021, published 2025).

Assays:
[1] = target: Protein arginine deiminase 4 (PAD4) (Homo sapiens, UniProt Q9UM07); assay: PAD4 ammonia release assay; type: biochemical; conditions: for IC50: PAD4 ammonia release assay, BAEE substrate, 60 min at RT, read-out: Average IC50 Abs; for relative potency of separated isomers in the PAD4 biochemical assay: SFC-separated stereoisomer pairs
Procedure, shortened: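 PAD4 (20 nM, 2× working solution) was preincubated with compound for 15 min at RT in 100 mM HEPES pH 8.0, 2 mM CaCl2, 50 mM NaCl, 0.1 mM TCEP, BSA at 1.25% DMSO. BAEE (600 μM, 2× mix) reacted 60 min, then OPA/DTT/EDTA detection for 120 min. IC50 came from a 4-parameter fit, normalized to 50 μM reference (100%) and DMSO (0%).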

[2] = system: Citrullinated Histone H3 in dHL-60 cells (differentiated HL-60); assay: dHL-60 Cit-H3 ELISA assay; type: cell-based, human; conditions: Homo sapiens, HL-60, 3 h, stimulation with 25 μM A23187 for 3 h, read-out: Average IC50 Abs
Procedure: Cell culture: HL-60 cells were grown in IMDM+20% FBS+1% PS. The suspension cells were split into 1:5 with fresh media every 2-3 days to maintain cell density between 1×10^5 to 1×10^6 viable cells/mL. HL-60 cells differentiation: HL-60 cells were diluted to 1×10^5 cells/mL and differentiated into neutrophil-like cells with 100 mM DMF treatment for 72 hours in flask at 37° C., 5% CO2. dHL-60 Cells plating: • 1) HL-60 cells were collected, and the plate was centrifuged at 1000 rpm for 5 min. • 2) The HL-60 cells were diluted to 1.25×10^6 cells/mL and plated into a 96-well plate with 80 μL/well (i.e., 1×10^5/well). The plate was then incubated in the incubator (5% CO2, 37° C.) for 30 min to allow cells to adhere. Compound treatment: • 1) Preparation of compound serial dilution (source plate 500×, final DMSO concentration: 0.2%): briefly, compounds were dissolved in 100% DMSO to a concentration of 20 mM (the stock solution) and a 3-fold serial dilution with 8-point doses was performed. • 2) A 10× compound solution was pipetted up and down; and 10 μL/well of compounds were added into each well and incubated for 30 min. Stimulation with 25 μM A23187: • 1) A solution of A23187 (250 μM) in complete IMDM (IMDM+10% FBS+1% PS) containing 150 U/mL S7 Nuclease was prepared. The obtained solution was added 10 μL/well into each well and incubated for 3 h in the incubator (5% CO2, 37° C.). • 2) The dHL-60 cells treated with 10 μL/well complete IMDM without A23187 worked as negative control. Sample preparation: • 1) EDTA (0.5 M, 2 μL/well) were added to all the wells to stop the reaction. • 2) The plate was centrifuged at 1000 rpm for 5 min to collect supernatant. • 3) The supernatant was then diluted at least 1:2 before adding to the ELISA plate for citrullinated H3 analysis.
The standard was reconstituted with 2 mL of Assay buffer to 500 ng/mL. The reconstituted standard was relatively unstable at 4° C. and should be used within 3 hr after reconstitution.
• 1) 100 μL of the standards or diluted samples were added to the wells on the ELISA plate. • 2) The plate was covered with Cover Sheet and incubated for 2 h at room temperaturert on an orbital shaker.
On the day of the assay, the reagent was thawed at room temperaturert. For one plate, 1.2 mL of HRP Conjugate were diluted into 10.8 mL of assay buffer. A diluted HRP Conjugate was prepared shortly before use.
• 1) The wells were empties and rinsed four times with 1× wash buffer with 300 μL/well (Low speed). The plate was inverted between wash steps to empty the plate. After the last wash, the inverted plate was gently tapped on absorbent paper to remove the residual wash buffer. • 2) 100 μL of the HRP Conjugate working solution were added to each well of the plate. • 3) The plate was covered with cover sheet and incubated for 1 h at RT on an orbital shaker.
• 1) The wells were empties and rinsed four times with 1× wash buffer with 300 μL/well (low speed). The plate was inverted between wash steps to empty the plate. […] 100 uL of HRP STOP solution were added to each well of the plate.
• 1) Wipe the bottom of the plate with a clean tissue to remove fingerprints, dirt, etc. • 2) Read the plate at a wavelength of 450 nm.
The percent (%) inhibition at each concentration of compound was calculated based on and relative to the signal in the HPE and ZPE wells contained within each assay plate. The HPE wells worked as […], and the ZPE wells didn't contain any compound but rather DMSO (final concentration=0.1%) as […]. The concentrations and % inhibition values for tested compounds were plotted and the concentration of compound required for 50% inhibition (IC50) was determined with a Four-parameter logistic dose response equation. The endpoint value (IC50) for the reference peptide/compound was evaluated in each experiment as a quality control measure. If the endpoint value is within 3-fold of the expected value then the experiment is deemed acceptable. […]

Chain of Protein arginine deiminase 4 (PAD4) (Q9UM07 whole entry): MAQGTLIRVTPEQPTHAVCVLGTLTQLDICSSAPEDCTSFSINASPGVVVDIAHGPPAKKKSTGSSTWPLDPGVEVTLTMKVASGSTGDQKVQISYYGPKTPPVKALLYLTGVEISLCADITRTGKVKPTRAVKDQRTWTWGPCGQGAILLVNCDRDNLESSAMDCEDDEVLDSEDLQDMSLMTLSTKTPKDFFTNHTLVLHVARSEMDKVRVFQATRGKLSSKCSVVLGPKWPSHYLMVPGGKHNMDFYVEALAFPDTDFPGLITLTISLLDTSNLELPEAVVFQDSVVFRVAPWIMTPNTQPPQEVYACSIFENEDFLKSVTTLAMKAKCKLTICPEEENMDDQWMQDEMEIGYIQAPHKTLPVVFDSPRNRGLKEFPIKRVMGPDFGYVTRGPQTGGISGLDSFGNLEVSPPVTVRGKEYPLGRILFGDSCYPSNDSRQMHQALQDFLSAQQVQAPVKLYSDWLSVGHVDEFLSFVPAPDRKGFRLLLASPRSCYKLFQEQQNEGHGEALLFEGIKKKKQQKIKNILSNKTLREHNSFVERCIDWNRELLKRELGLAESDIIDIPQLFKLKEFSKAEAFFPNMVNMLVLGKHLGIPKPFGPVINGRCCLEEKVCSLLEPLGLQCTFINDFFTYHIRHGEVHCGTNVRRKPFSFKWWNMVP

SMILES	IC50 [1] [nM]	IC50 [2] [nM]	relative potency of separated isomers in the PAD4 biochemical assay [1]
CCn1cc(Cn2c(-c3cc4cccc5c4n3CCN5CC(F)(F)F)nc3cc(C(=O)N4C[C@H](N)C[C@@H](F)C4)cc(F)c32)cn1 [Example 47, ((3R,5R)-3-amino-5-fluoropiperidin-1-yl)(1-((1-ethyl-1H-pyrazol-4-yl)methyl)-7-fluoro-2-(1-(2,2,2-trifluoroethyl)-2,3-dihydro-1H-pyrrolo[1,2,3-de]quinoxalin-5-yl)-1H-benzo[d]imidazol-5-yl)methanone]	100 to 500	500 to 5000	–
COc1cc(C(=O)N2C[C@H](N)C[C@@H](F)C2)cc2nc(-c3cc4cccc5c4n3CCN5CCCO)n(CC3CCC3)c12 [Example 48, ((3R,5R)-3-amino-5-fluoropiperidin-1-yl)(1-(cyclobutylmethyl)-2-(1-(3-hydroxypropyl)-2,3-dihydro-1H-pyrrolo[1,2,3-de]quinoxalin-5-yl)-7-methoxy-1H-benzo[d]imidazol-5-yl)methanone]	100 to 500	100 to 500	–
C#CCn1c(-c2cc3cccc4c3n2CCN4CCCO)nc2cc(C(=O)N3C[C@H](N)C[C@@H](F)C3)cc(OC)c21 [Example 49, ((3R,5R)-3-amino-5-fluoropiperidin-1-yl)(2-(1-(3-hydroxypropyl)-2,3-dihydro-1H-pyrrolo[1,2,3-de]quinoxalin-5-yl)-7-methoxy-1-(prop-2-yn-1-yl)-1H-benzo[d]imidazol-5-yl)methanone]	100 to 500	500 to 5000	–
COc1cc(C(=O)N2C[C@H](N)C[C@@H](F)C2)cc2nc(-c3cc4cccc5c4n3CCN5CCCO)n(CC3CC(F)(F)C3)c12 [Example 50, ((3R,5R)-3-amino-5-fluoropiperidin-1-yl)(1-((3,3-difluorocyclobutyl)methyl)-2-(1-(3-hydroxypropyl)-2,3-dihydro-1H-pyrrolo[1,2,3-de]quinoxalin-5-yl)-7-methoxy-1H-benzo[d]imidazol-5-yl)methanone]	≤ 100	100 to 500	–
CCC1CN(CCCO)c2cccc3cc(-c4nc5cc(C(=O)N6C[C@H]7CC[C@@H]6[C@@H]7N)cc(F)c5n4C)n1c23 (stereo partly drawn) [Example 69, ((1R,4R,7R)-7-amino-2-azabicyclo[2.2.1]heptan-2-yl)(2-(3-ethyl-1-(3-hydroxypropyl)-2,3-dihydro-1H-pyrrolo[1,2,3-de]quinoxalin-5-yl)-7-fluoro-1-methyl-1H-benzo[d]imidazol-5-yl)methanone]	≤ 100	≤ 100	–
CC[C@H]1CN(CCCO)c2cccc3cc(-c4nc5cc(C(=O)N6C[C@H]7CC[C@@H]6[C@@H]7N)cc(F)c5n4C)n1c23 [Example 71, ((1R,4R,7R)-7-amino-2-azabicyclo[2.2.1]heptan-2-yl)(2-((S)-3-ethyl-1-(3-hydroxypropyl)-2,3-dihydro-1H-pyrrolo[1,2,3-de]quinoxalin-5-yl)-7-fluoro-1-methyl-1H-benzo[d]imidazol-5-yl)methanone]	≤ 100	≤ 100	more potent
CC[C@H]1CNc2cccc3cc(-c4nc5cc(C(=O)N6C[C@H]7CC[C@@H]6[C@@H]7N)cc(F)c5n4C)n1c23 [Example 74, ((1R,4R,7R)-7-amino-2-azabicyclo[2.2.1]heptan-2-yl)(2-((S)-3-ethyl-2,3-dihydro-1H-pyrrolo[1,2,3-de]quinoxalin-5-yl)-7-fluoro-1-methyl-1H-benzo[d]imidazol-5-yl)methanone]	≤ 100	≤ 100	more potent than Example 73
CCC1CN(CCCO)c2cccc3cc(-c4nc5cc(C(=O)N6C[C@H](N)C[C@@H](F)C6)cc(OC)c5n4C)n1c23 (stereo partly drawn) [Example 80, ((3R,5R)-3-amino-5-fluoropiperidin-1-yl)(2-(3-ethyl-1-(3-hydroxypropyl)-2,3-dihydro-1H-pyrrolo[1,2,3-de]quinoxalin-5-yl)-7-methoxy-1-methyl-1H-benzo[d]imidazol-5-yl)methanone]	100 to 500	100 to 500	–

The remaining lines, values ahead:

IC50 [1] [nM]	IC50 [2] [nM]	relative potency of separated isomers in the PAD4 biochemical assay [1]	SMILES
100 to 500	500 to 5000	–	COc1cc(C(=O)N2CCC[C@@H](N)C2)cc2nc(-c3cc4cccc5c4n3CCN5CCCO)n(Cc3cnn(C)c3)c12 [Example 44, (R)-(3-aminopiperidin-1-yl)(2-(1-(3-hydroxypropyl)-2,3-dihydro-1H-pyrrolo[1,2,3-de]quinoxalin-5-yl)-7-methoxy-1-((1-methyl-1H-pyrazol-4-yl)methyl)-1H-benzo[d]imidazol-5-yl)methanone]
≤ 100	500 to 5000	–	Cn1cc(Cn2c(-c3cc4cccc5c4n3CCN5CCCO)nc3cc(C(=O)N4C[C@@H](N)C[C@H](F)C4)cc(F)c32)cn1 [Example 46, ((3S,5S)-3-amino-5-fluoropiperidin-1-yl)(7-fluoro-2-(1-(3-hydroxypropyl)-2,3-dihydro-1H-pyrrolo[1,2,3-de]quinoxalin-5-yl)-1-((1-methyl-1H-pyrazol-4-yl)methyl)-1H-benzo[d]imidazol-5-yl)methanone]
≤ 100	500 to 5000	–	COc1cc(C(=O)N2C[C@H](N)C[C@@H](F)C2)cc2nc(-c3cc4cccc5c4n3CCN5CCCO)n(CC3CC3)c12 [Example 59, ((3R,5R)-3-amino-5-fluoropiperidin-1-yl)(1-(cyclopropylmethyl)-2-(1-(3-hydroxypropyl)-2,3-dihydro-1H-pyrrolo[1,2,3-de]quinoxalin-5-yl)-7-methoxy-1H-benzo[d]imidazol-5-yl)methanone]
100 to 500	100 to 500	–	COc1cc(C(=O)N2C[C@H](N)C[C@@H](F)C2)cc2nc(-c3cc4cccc5c4n3C(C)CN5CCCO)n(C)c12 (stereo partly drawn) [Example 64, ((3R,5R)-3-amino-5-fluoropiperidin-1-yl)(2-(1-(3-hydroxypropyl)-3-methyl-2,3-dihydro-1H-pyrrolo[1,2,3-de]quinoxalin-5-yl)-7-methoxy-1-methyl-1H-benzo[d]imidazol-5-yl)methanone]
100 to 500	100 to 500	–	CCn1c(-c2cc3cccc4c3n2C(C)CN4CCCO)nc2cc(C(=O)N3C[C@H]4CC[C@@H]3[C@@H]4N)cc(OC)c21 (stereo partly drawn) [Example 68, ((1R,4R,7R)-7-amino-2-azabicyclo[2.2.1]heptan-2-yl)(1-ethyl-2-(1-(3-hydroxypropyl)-3-methyl-2,3-dihydro-1H-pyrrolo[1,2,3-de]quinoxalin-5-yl)-7-methoxy-1H-benzo[d]imidazol-5-yl)methanone]
100 to 500	100 to 500	–	CCC1CNc2cccc3cc(-c4nc5cc(C(=O)N6C[C@H]7CC[C@@H]6[C@@H]7N)cc(F)c5n4C)n1c23 (stereo partly drawn) [Example 72, ((1R,4R,7R)-7-amino-2-azabicyclo[2.2.1]heptan-2-yl)(2-(3-ethyl-2,3-dihydro-1H-pyrrolo[1,2,3-de]quinoxalin-5-yl)-7-fluoro-1-methyl-1H-benzo[d]imidazol-5-yl)methanone]
